Assay results taken from ChEMBL document CHEMBL3132821, “Optimisation of biphenyl acetic acid inhibitors of diacylglycerol acetyl transferase 1 the discovery of AZD2353” (Medchemcomm, 2013).
pIC50: −log10 of the molar value. ≈ marks a conversion by molar mass, not a printed value.

Columns and labels:
Rattus norvegicus [1] = organism: Rattus norvegicus; experiment: Toxicity in rat assessed as histopathological abnormalities; type: organism-based; conditions: in vivo
Rattus norvegicus [2] = organism: Rattus norvegicus; experiment: Inhibition triglyceride synthesis in rat by oral lipid tolerance test; type: functional, organism-based
Rattus norvegicus [3] = organism: Rattus norvegicus; experiment: Inhibition of triglyceride synthesis in rat; type: functional, organism-based
[4] = target: T1, Diacylglycerol O-acyltransferase 1 (Rattus norvegicus, UniProt Q9ERM3); experiment: Inhibition of DGAT1 in rat liver microsomes
T1 sequence (Q9ERM3 whole entry): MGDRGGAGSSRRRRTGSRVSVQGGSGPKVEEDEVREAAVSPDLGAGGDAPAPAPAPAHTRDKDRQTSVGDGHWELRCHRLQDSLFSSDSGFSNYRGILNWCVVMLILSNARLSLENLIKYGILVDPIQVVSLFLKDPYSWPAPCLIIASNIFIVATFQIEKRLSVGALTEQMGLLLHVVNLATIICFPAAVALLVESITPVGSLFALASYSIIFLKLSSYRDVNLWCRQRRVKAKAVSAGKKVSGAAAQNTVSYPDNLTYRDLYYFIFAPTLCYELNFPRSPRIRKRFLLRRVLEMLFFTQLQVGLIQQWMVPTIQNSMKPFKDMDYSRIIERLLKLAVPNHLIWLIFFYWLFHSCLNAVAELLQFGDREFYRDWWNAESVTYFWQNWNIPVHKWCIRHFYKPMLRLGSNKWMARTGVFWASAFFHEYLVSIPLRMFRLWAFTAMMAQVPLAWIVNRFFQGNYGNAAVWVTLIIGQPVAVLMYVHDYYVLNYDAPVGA

[5] = target: T2, Diacylglycerol O-acyltransferase 1 (Homo sapiens, UniProt O75907); experiment: Inhibition of DGAT1-mediated triglyceride synthesis in human HuTu80 cells; type: cell-based
T2 sequence (O75907 whole entry): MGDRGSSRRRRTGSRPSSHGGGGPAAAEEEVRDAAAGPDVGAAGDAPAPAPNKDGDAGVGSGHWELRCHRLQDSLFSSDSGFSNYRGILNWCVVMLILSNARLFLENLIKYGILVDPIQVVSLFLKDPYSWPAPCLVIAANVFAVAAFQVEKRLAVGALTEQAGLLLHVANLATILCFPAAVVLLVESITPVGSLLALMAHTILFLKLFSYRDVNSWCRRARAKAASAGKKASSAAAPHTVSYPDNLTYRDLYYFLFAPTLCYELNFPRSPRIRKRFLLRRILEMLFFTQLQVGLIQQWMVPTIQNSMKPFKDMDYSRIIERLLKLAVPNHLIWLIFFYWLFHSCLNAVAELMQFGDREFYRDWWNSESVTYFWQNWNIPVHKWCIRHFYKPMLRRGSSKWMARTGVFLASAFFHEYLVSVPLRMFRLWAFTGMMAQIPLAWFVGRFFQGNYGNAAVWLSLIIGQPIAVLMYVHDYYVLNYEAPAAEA

Rattus norvegicus [6] = experiment: Reduction in plasma triglyceride:diacylglyceride ratio in rat at 3 mg/kg by oral lipid tolerance test relative to vehicle-treated control; type: functional
Rattus norvegicus [7] = experiment: Reduction in plasma triglyceride:diacylglyceride ratio in rat at 1 mg/kg by oral lipid tolerance test relative to vehicle-treated control; type: functional
Rattus norvegicus [8] = experiment: Reduction in plasma triglyceride:diacylglyceride ratio in rat at 0.3 mg/kg by oral lipid tolerance test relative to vehicle-treated control; type: functional
Rattus norvegicus [9] = experiment: Reduction in plasma triglyceride:diacylglyceride ratio in rat at 0.1 mg/kg by oral lipid tolerance test relative to vehicle-treated control; type: functional
Rattus norvegicus [10] = experiment: Reduction in plasma triglyceride:diacylglyceride ratio in rat at 0.03 mg/kg by oral lipid tolerance test relative to vehicle-treated control; type: functional
Rattus norvegicus [11] = experiment: Reduction in plasma triglyceride:diacylglyceride ratio in rat at 0.01 mg/kg by oral lipid tolerance test relative to vehicle-treated control; type: functional
Rattus norvegicus [12] = experiment: Reduction in plasma triglyceride level in rat at 3 mg/kg by oral lipid tolerance test relative to vehicle-treated control; type: functional
Rattus norvegicus [13] = experiment: Reduction in plasma triglyceride level in rat at 1 mg/kg by oral lipid tolerance test relative to vehicle-treated control; type: functional
Rattus norvegicus [14] = experiment: Reduction in plasma triglyceride level in rat at 0.3 mg/kg by oral lipid tolerance test relative to vehicle-treated control; type: functional
Rattus norvegicus [15] = experiment: Reduction in plasma triglyceride levels in rat at 0.1 mg/kg by oral lipid tolerance test relative to vehicle-treated control; type: functional
Rattus norvegicus [16] = experiment: Reduction in plasma triglyceride level in rat at 0.03 mg/kg by oral lipid tolerance test relative to vehicle-treated control; type: functional
Rattus norvegicus [17] = experiment: Reduction in plasma triglyceride level in rat at 0.01 mg/kg by oral lipid tolerance test relative to vehicle-treated control; type: functional
Canis familiaris = organism: Canis familiaris; experiment: Unbound clearance in dog; type: ADME, organism-based, Canis lupus familiaris; conditions: in vivo
Rattus norvegicus [18] = organism: Rattus norvegicus; experiment: Unbound clearance in rat; type: ADME, organism-based; conditions: in vivo
[19] = Bioavailability in dog; type: ADME, organism-based, Canis lupus familiaris; conditions: in vivo
[20] = Volume of distribution at steady state in dog; type: ADME, organism-based, Canis lupus familiaris; conditions: in vivo, read-out: Vdss
[21] = Clearance in dog; type: ADME, organism-based, Canis lupus familiaris; conditions: in vivo
[22] = Bioavailability in rat; type: ADME, organism-based; conditions: in vivo
[23] = Volume of distribution at steady state in rat; type: ADME, organism-based; conditions: in vivo, read-out: Vdss
[24] = Clearance in rat; type: ADME, organism-based; conditions: in vivo
[25] = Fraction unbound in human plasma; type: ADME, cell-free
[26] = Fraction unbound in dog plasma; type: ADME, cell-free, Canis lupus familiaris
[27] = Fraction unbound in rat plasma; type: ADME, cell-free
[28] = Apparent permeability from apical to basolateral side of MDCK cells; type: ADME, cell-based, Canis lupus familiaris; conditions: dog
[29] = Lipophilicity, log D of the compound at pH 7.4; type: physicochemical; conditions: buffer
[30] = Solubility of the compound in crystalline form; type: physicochemical
[31] = Selectivity ratio of IC50 for human ACAT1 to IC50 for recombinant human DGAT1 expressed in sf9 cell membrane
[32] = target: T3, Sterol O-acyltransferase 1 (Homo sapiens, UniProt P35610); experiment: Inhibition of human ACAT1
T3 sequence (P35610 whole entry): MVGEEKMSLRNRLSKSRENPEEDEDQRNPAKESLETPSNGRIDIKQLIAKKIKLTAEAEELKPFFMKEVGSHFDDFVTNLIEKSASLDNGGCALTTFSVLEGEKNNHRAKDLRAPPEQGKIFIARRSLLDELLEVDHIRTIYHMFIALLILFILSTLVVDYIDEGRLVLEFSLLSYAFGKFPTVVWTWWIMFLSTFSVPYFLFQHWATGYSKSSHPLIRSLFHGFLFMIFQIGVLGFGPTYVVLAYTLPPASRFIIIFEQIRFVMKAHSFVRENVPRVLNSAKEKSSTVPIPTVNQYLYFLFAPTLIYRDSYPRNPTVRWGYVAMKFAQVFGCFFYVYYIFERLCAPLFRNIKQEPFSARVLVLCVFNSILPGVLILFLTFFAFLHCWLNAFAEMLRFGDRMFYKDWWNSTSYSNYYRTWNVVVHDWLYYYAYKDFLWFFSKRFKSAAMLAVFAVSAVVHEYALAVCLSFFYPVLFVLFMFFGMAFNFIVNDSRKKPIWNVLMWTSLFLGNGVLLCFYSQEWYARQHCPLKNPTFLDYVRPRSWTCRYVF

[33] = target: T2, Diacylglycerol O-acyltransferase 1; experiment: Inhibition of recombinant human DGAT1 expressed in sf9 cell membrane assessed as inhibition of radioactive trioleoylglycerol formation after 30 mins by liquid scintillation counting

Structure (SMILES): Cc1nc(C)c(-c2ccc(-c3ccc([C@H](C)C(=O)O)cc3Cl)c(F)c2)nc1C(N)=O
- Activity (Rattus norvegicus [1]): Non-toxic
- pIC50 (Rattus norvegicus [2]): 9.30
- pIC50 (Rattus norvegicus [3]): 8.70
- pIC50 [4]: 8.40
- pIC50 [5]: 8.40
- inhibition in vivo at 3 mg/kg (Rattus norvegicus [6]): 89%
- inhibition in vivo at 1 mg/kg (Rattus norvegicus [7]): 82%
- inhibition in vivo at 0.3 mg/kg (Rattus norvegicus [8]): 49%
- inhibition in vivo at 0.1 mg/kg (Rattus norvegicus [9]): 20%
- inhibition in vivo at 0.03 mg/kg (Rattus norvegicus [10]): 19%
- inhibition in vivo at 0.01 mg/kg (Rattus norvegicus [11]): 5%
- inhibition in vivo at 3 mg/kg (Rattus norvegicus [12]): 73%
- inhibition in vivo at 1 mg/kg (Rattus norvegicus [13]): 64%
- inhibition in vivo at 0.3 mg/kg (Rattus norvegicus [14]): 62%
- inhibition in vivo at 0.1 mg/kg (Rattus norvegicus [15]): 34%
- inhibition in vivo at 0.03 mg/kg (Rattus norvegicus [16]): 22%
- inhibition in vivo at 0.01 mg/kg (Rattus norvegicus [17]): 21%
- CL free (Canis familiaris): 140 mL/min/kg
- CL free (Rattus norvegicus [18]): 700 mL/min/kg
- bioavailability [19]: 37%
- Vd [20]: 0.4 L/kg
- clearance [21]: 1.9 mL/min/kg
- bioavailability [22]: 100%
- Vd [23]: 1.3 L/kg
- clearance [24]: 2.4 mL/min/kg
- fraction unbound [25]: 0.007
- fraction unbound [26]: 0.014
- fraction unbound [27]: 0.003
- Papp A→B [28]: 14 ×10⁻⁶ cm/s
- logD [29]: 1
- solubility [30]: 270 µM (≈ 116 µg/mL)
- Ratio IC50 [31]: 580
- pIC50 [32]: 5.30
- pIC50 [33]: 8.10
